Measurements from US6737383B1, “Herbicidal oxadiazolidines” (priority 1999, dated 2004).

Experiments:
blackgrass = experiment: Test B pre/postemergence blackgrass; format: in vivo, Alopecurus myosuroides
Summary of the method: (§1)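 Response is a visual 0-to-10 score relative to untreated plants, where 0 means no effect and 10 means complete control, taken twelve to sixteen days after application. Treatments went onto soil at planting and onto foliage of 1- to 4-leaf plants, using a surfactant-containing non-phytotoxic solvent.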

sugar beet = experiment: Test B pre/postemergence sugar beet; format: in vivo, Beta vulgaris
Summary of the method: as §1

rice = experiment: Test B flood test rice; format: in vivo, Oryza sativa
Summary of the method: (§2)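 Read-out is a visual response score from 0 (no effect) to 10 (complete control), assigned by comparison with untreated controls. Treatment was applied at the 2-leaf stage, and plants stayed in the greenhouse for twelve to sixteen days before scoring.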

purple nutsedge = experiment: Test B pre/postemergence purple nutsedge; format: in vivo, Cyperus rotundus
Summary of the method: as §1

smallflower flatsedge = experiment: Test B flood test smallflower flatsedge; format: in vivo, Cyperus difformis
Summary of the method: as §2

wheat = experiment: Test B pre/postemergence wheat; format: in vivo, Triticum aestivum
Summary of the method: as §1

corn = experiment: Test B pre/postemergence corn; format: in vivo, Zea mays
Summary of the method: as §1

wild oat = experiment: Test B pre/postemergence wild oat; format: in vivo, Avena fatua
Summary of the method: as §1

rape = experiment: Test B pre/postemergence rape; format: in vivo, Brassica napus
Summary of the method: as §1

crabgrass = experiment: Test B pre/postemergence crabgrass; format: in vivo, Digitaria sanguinalis
Summary of the method: as §1

bedstraw = experiment: Test B pre/postemergence bedstraw; format: in vivo, Galium aparine
Summary of the method: as §1

surinam grass = experiment: Test B pre/postemergence surinam grass; format: in vivo, Brachiaria decumbens
Summary of the method: as §1

velvetleaf = experiment: Test B pre/postemergence velvetleaf; format: in vivo, Abutilon theophrasti
Summary of the method: as §1

pigweed = experiment: Test B pre/postemergence pigweed; format: in vivo, Amaranthus retroflexus
Summary of the method: as §1

duck salad = experiment: Test B flood test duck salad; format: in vivo, Heteranthera limosa
Summary of the method: as §2

soybean = experiment: Test B pre/postemergence soybean; format: in vivo, Glycine max
Summary of the method: as §1

[1] = Postemergence, Rate 62 g/ha, scale 0 to 10, 0 is no effect, 10 is complete control
[2] = Postemergence, Rate 250 g/ha, scale 0 to 10, 0 no effect, 10 complete control
[3] = Postemergence, Rate 1000 g/ha, scale 0 to 10 (0 no effect, 10 complete control)
[4] = Preemergence, Rate 31 g/ha, visual rating, scale 0 to 10 (0 no effect, 10 complete control)
[5] = Preemergence, Rate 62 g/ha, scale 0 to 10, 0 is no effect, 10 is complete control
[6] = Preemergence, Rate 125 g/ha, scale 0 to 10 (0 no effect, 10 complete control)
[7] = Preemergence, Rate 250 g/ha, scale of 0 to 10 where 0 is no effect and 10 is complete control
[8] = Preemergence, Rate 500 g/ha, scale 0 (no effect) to 10 (complete control)
[9] = Rate 31 g/ha, Postemergence, scale 0 to 10
[10] = Rate 125 g/ha, Postemergence, scale 0 to 10, 0 no effect, 10 complete control
[11] = Rate 500 g/ha, Postemergence, 0 to 10 scale (0 no effect, 10 complete control)
[12] = Rate 1000 g/ha, Preemergence, scale 0 to 10 (0 no effect, 10 complete control)
[13] = Rate 31 g/ha, Postemergence section (flood test species), scale 0 to 10
[14] = Rate 125 g/ha, Postemergence section (flood test species), scale 0 to 10, 0 no effect, 10 complete control
[15] = Rate 500 g/ha, Postemergence section of Table B, 0 to 10 scale (0 no effect, 10 complete control)
[16] = flood test, listed under Postemergence, Rate 250 g/ha, scale 0 to 10, 0 no effect, 10 complete control

In the case of `Cc1ccccc1-n1c(=O)on(C(=O)N(c2ccc(F)cc2)C(C)C)c1=O` [Compound 4], the “Blackgrass plant response rating” value (blackgrass; [1]) is reported as 0, the “Blackgrass plant response rating” value (blackgrass; [2]) is reported as 5 and the “Blackgrass plant response rating” value (blackgrass; [3]) is reported as 6. For the same molecule, the “Blackgrass plant response rating” value (blackgrass; [4]) was 0, the “Plant response rating, Blackgrass” value (blackgrass; [5]) was 0 and the “Plant response rating, Blackgrass” value (blackgrass; [6]) was 6. The “Plant response rating, Blackgrass” value (blackgrass; [7]) was 8, the “Blackgrass plant response rating” value (blackgrass; [8]) was 8 and the “Blackgrass plant response rating” value (blackgrass; [9]) was 0. For the same molecule, the “Blackgrass plant response rating” value (blackgrass; [10]) was 4, the “Blackgrass plant response rating” value (blackgrass; [11]) was 6 and the “Plant response rating, Blackgrass” value (blackgrass; [12]) was 10. For the same molecule, the “Sugarbeets plant response rating” value (sugar beet; [1]) was 0, the “Sugarbeets plant response rating” value (sugar beet; [2]) was 3 and the “Sugarbeets plant response rating” value (sugar beet; [3]) was 4. The “Sugarbeets plant response rating” value (sugar beet; [4]) was 0, the “Plant response rating, Sugarbeets” value (sugar beet; [5]) was 0 and the “Plant response rating, Sugarbeets” value (sugar beet; [6]) was 7. For the same molecule, the “Plant response rating, Sugarbeets” value (sugar beet; [7]) was 8, the “Sugarbeets plant response rating” value (sugar beet; [8]) was 3 and the “Sugarbeets plant response rating” value (sugar beet; [10]) was 2. The “Plant response rating, Sugarbeets” value (sugar beet; [12]) was 4, the “Rice plant response rating” value (rice; [1]) was 0 and the “Rice plant response rating” value (rice; [3]) was 0. For the same molecule, the “Rice plant response rating” value (rice; [13]) was 0, the “Rice plant response rating” value (rice; [14]) was 0 and the “Rice plant response rating” value (rice; [15]) was 0. The “Rice plant response rating” value (rice; [16]) was 0, the “Nutsedge plant response rating” value (purple nutsedge; [1]) was 0 and the “Nutsedge plant response rating” value (purple nutsedge; [2]) was 0. For the same molecule, the “Nutsedge plant response rating” value (purple nutsedge; [3]) was 0, the “Nutsedge plant response rating” value (purple nutsedge; [4]) was 0 and the “Plant response rating, Nutsedge” value (purple nutsedge; [5]) was 0. For the same molecule, the “Plant response rating, Nutsedge” value (purple nutsedge; [6]) was 0, the “Plant response rating, Nutsedge” value (purple nutsedge; [7]) was 0 and the “Nutsedge plant response rating” value (purple nutsedge; [8]) was 0. The “Nutsedge plant response rating” value (purple nutsedge; [9]) was 0, the “Nutsedge plant response rating” value (purple nutsedge; [10]) was 0 and the “Nutsedge plant response rating” value (purple nutsedge; [11]) was 0. For the same molecule, the “Plant response rating, Nutsedge” value (purple nutsedge; [12]) was 0, the “S. Flatsedge plant response rating” value (smallflower flatsedge; [1]) was 0 and the “S. Flatsedge plant response rating” value (smallflower flatsedge; [3]) was 4. The “S. Flatsedge plant response rating” value (smallflower flatsedge; [14]) was 0, the “S. Flatsedge plant response rating” value (smallflower flatsedge; [16]) was 2 and the “Wheat plant response rating” value (wheat; [1]) was 0. For the same molecule, the “Wheat plant response rating” value (wheat; [2]) was 0, the “Wheat plant response rating” value (wheat; [3]) was 0 and the “Wheat plant response rating” value (wheat; [4]) was 0. The “Plant response rating, Wheat” value (wheat; [5]) was 0, the “Plant response rating, Wheat” value (wheat; [6]) was 0 and the “Plant response rating, Wheat” value (wheat; [7]) was 0. The “Wheat plant response rating” value (wheat; [8]) was 0, the “Wheat plant response rating” value (wheat; [10]) was 0 and the “Plant response rating, Wheat” value (wheat; [12]) was 0. For the same molecule, the “Corn plant response rating” value (corn; [1]) was 0, the “Corn plant response rating” value (corn; [2]) was 0 and the “Corn plant response rating” value (corn; [3]) was 0. The “Corn plant response rating” value (corn; [4]) was 0, the “Plant response rating, Corn” value (corn; [5]) was 0 and the “Plant response rating, Corn” value (corn; [6]) was 0. The “Plant response rating, Corn” value (corn; [7]) was 0, the “Corn plant response rating” value (corn; [8]) was 0 and the “Corn plant response rating” value (corn; [9]) was 0. For the same molecule, the “Corn plant response rating” value (corn; [10]) was 0, the “Corn plant response rating” value (corn; [11]) was 0 and the “Plant response rating, Corn” value (corn; [12]) was 0. The “Wild oats plant response rating” value (wild oat; [1]) was 0, the “Wild oats plant response rating” value (wild oat; [2]) was 0 and the “Wild oats plant response rating” value (wild oat; [3]) was 0. The “Wild oats plant response rating” value (wild oat; [4]) was 0, the “Plant response rating, Wild oats” value (wild oat; [6]) was 0 and the “Plant response rating, Wild oats” value (wild oat; [7]) was 4. For the same molecule, the “Wild oats plant response rating” value (wild oat; [8]) was 7, the “Wild oats plant response rating” value (wild oat; [10]) was 0 and the “Plant response rating, Wild oats” value (wild oat; [12]) was 8. For the same molecule, the “Rape plant response rating” value (rape; [1]) was 0, the “Rape plant response rating” value (rape; [2]) was 0 and the “Rape plant response rating” value (rape; [3]) was 3. For the same molecule, the “Rape plant response rating” value (rape; [4]) was 0, the “Plant response rating, Rape” value (rape; [5]) was 0 and the “Plant response rating, Rape” value (rape; [6]) was 0. The “Plant response rating, Rape” value (rape; [7]) was 6, the “Rape plant response rating” value (rape; [8]) was 0 and the “Rape plant response rating” value (rape; [9]) was 0. For the same molecule, the “Rape plant response rating” value (rape; [10]) was 0, the “Rape plant response rating” value (rape; [11]) was 2 and the “Plant response rating, Rape” value (rape; [12]) was 3. For the same molecule, the “Crabgrass plant response rating” value (crabgrass; [1]) was 0, the “Crabgrass plant response rating” value (crabgrass; [2]) was 8 and the “Crabgrass plant response rating” value (crabgrass; [3]) was 8. The “Crabgrass plant response rating” value (crabgrass; [4]) was 3, the “Plant response rating, Crabgrass” value (crabgrass; [5]) was 3 and the “Plant response rating, Crabgrass” value (crabgrass; [6]) was 10. The “Plant response rating, Crabgrass” value (crabgrass; [7]) was 10, the “Crabgrass plant response rating” value (crabgrass; [8]) was 10 and the “Crabgrass plant response rating” value (crabgrass; [9]) was 0. The “Crabgrass plant response rating” value (crabgrass; [10]) was 5, the “Crabgrass plant response rating” value (crabgrass; [11]) was 8 and the “Plant response rating, Crabgrass” value (crabgrass; [12]) was 10. The “Bedstraw plant response rating” value (bedstraw; [1]) was 0, the “Bedstraw plant response rating” value (bedstraw; [2]) was 7 and the “Bedstraw plant response rating” value (bedstraw; [3]) was 8. For the same molecule, the “Bedstraw plant response rating” value (bedstraw; [4]) was 0, the “Plant response rating, Bedstraw” value (bedstraw; [5]) was 0 and the “Plant response rating, Bedstraw” value (bedstraw; [6]) was 1. The “Plant response rating, Bedstraw” value (bedstraw; [7]) was 4, the “Bedstraw plant response rating” value (bedstraw; [8]) was 4 and the “Bedstraw plant response rating” value (bedstraw; [9]) was 0. The “Bedstraw plant response rating” value (bedstraw; [10]) was 5, the “Bedstraw plant response rating” value (bedstraw; [11]) was 7 and the “Plant response rating, Bedstraw” value (bedstraw; [12]) was 6. For the same molecule, the “B. signalgrass plant response rating” value (surinam grass; [1]) was 0, the “B. signalgrass plant response rating” value (surinam grass; [2]) was 0 and the “B. signalgrass plant response rating” value (surinam grass; [3]) was 4. For the same molecule, the “B. signalgrass plant response rating” value (surinam grass; [4]) was 0, the “Plant response rating, B. signalgrass” value (surinam grass; [5]) was 0 and the “Plant response rating, B. signalgrass” value (surinam grass; [6]) was 7. For the same molecule, the “Plant response rating, B. signalgrass” value (surinam grass; [7]) was 8, the “B. signalgrass plant response rating” value (surinam grass; [8]) was 9 and the “B. signalgrass plant response rating” value (surinam grass; [9]) was 0. For the same molecule, the “B. signalgrass plant response rating” value (surinam grass; [10]) was 0, the “B. signalgrass plant response rating” value (surinam grass; [11]) was 2 and the “Plant response rating, B. signalgrass” value (surinam grass; [12]) was 10. The “Velvetleaf plant response rating” value (velvetleaf; [1]) was 0, the “Velvetleaf plant response rating” value (velvetleaf; [2]) was 3 and the “Velvetleaf plant response rating” value (velvetleaf; [3]) was 7. For the same molecule, the “Velvetleaf plant response rating” value (velvetleaf; [4]) was 0, the “Plant response rating, Velvetleaf” value (velvetleaf; [5]) was 0 and the “Plant response rating, Velvetleaf” value (velvetleaf; [6]) was 0. The “Plant response rating, Velvetleaf” value (velvetleaf; [7]) was 0, the “Velvetleaf plant response rating” value (velvetleaf; [8]) was 0 and the “Velvetleaf plant response rating” value (velvetleaf; [10]) was 3. The “Plant response rating, Velvetleaf” value (velvetleaf; [12]) was 0, the “Redroot pigweed plant response rating” value (pigweed; [1]) was 0 and the “Redroot pigweed plant response rating” value (pigweed; [2]) was 5. For the same molecule, the “Redroot pigweed plant response rating” value (pigweed; [3]) was 8, the “Redroot pigweed plant response rating” value (pigweed; [4]) was 0 and the “Plant response rating, Redroot pigweed” value (pigweed; [5]) was 2. For the same molecule, the “Plant response rating, Redroot pigweed” value (pigweed; [6]) was 5, the “Plant response rating, Redroot pigweed” value (pigweed; [7]) was 8 and the “Redroot pigweed plant response rating” value (pigweed; [9]) was 0. The “Redroot pigweed plant response rating” value (pigweed; [10]) was 4, the “Redroot pigweed plant response rating” value (pigweed; [11]) was 7 and the “Plant response rating, Redroot pigweed” value (pigweed; [12]) was 8. The “Ducksalad plant response rating” value (duck salad; [1]) was 0, the “Ducksalad plant response rating” value (duck salad; [3]) was 3 and the “Ducksalad plant response rating” value (duck salad; [13]) was 0. For the same molecule, the “Ducksalad plant response rating” value (duck salad; [14]) was 0, the “Ducksalad plant response rating” value (duck salad; [15]) was 2 and the “Ducksalad plant response rating” value (duck salad; [16]) was 2. The “Soybean plant response rating” value (soybean; [1]) was 2, the “Soybean plant response rating” value (soybean; [2]) was 4 and the “Soybean plant response rating” value (soybean; [3]) was 5. The “Soybean plant response rating” value (soybean; [4]) was 0, the “Plant response rating, Soybean” value (soybean; [5]) was 0 and the “Plant response rating, Soybean” value (soybean; [6]) was 0. The “Plant response rating, Soybean” value (soybean; [7]) was 0, the “Soybean plant response rating” value (soybean; [8]) was 0 and the “Soybean plant response rating” value (soybean; [10]) was 4. For the same molecule, the “Plant response rating, Soybean” value (soybean; [12]) was 1.
